Experimental data published in ChEMBL document CHEMBL4715696, “In vitro synergistic anticancer activity of the combination of T-type calcium channel blocker and chemotherapeutic agent in A549 cells” (Bioorg Med Chem Lett, 2016).
pIC50: −log10 of the molar value.

Key:
CYP1A2 = molecular target: T1, CYP1A2 (Homo sapiens, UniProt P05177); assay: Inhibition of human CYP1A2 assessed as residual activity at 10 uM measured after 15 mins relative to control; format: ADME; conditions: read-out: Activity
T1 sequence (P05177 whole entry): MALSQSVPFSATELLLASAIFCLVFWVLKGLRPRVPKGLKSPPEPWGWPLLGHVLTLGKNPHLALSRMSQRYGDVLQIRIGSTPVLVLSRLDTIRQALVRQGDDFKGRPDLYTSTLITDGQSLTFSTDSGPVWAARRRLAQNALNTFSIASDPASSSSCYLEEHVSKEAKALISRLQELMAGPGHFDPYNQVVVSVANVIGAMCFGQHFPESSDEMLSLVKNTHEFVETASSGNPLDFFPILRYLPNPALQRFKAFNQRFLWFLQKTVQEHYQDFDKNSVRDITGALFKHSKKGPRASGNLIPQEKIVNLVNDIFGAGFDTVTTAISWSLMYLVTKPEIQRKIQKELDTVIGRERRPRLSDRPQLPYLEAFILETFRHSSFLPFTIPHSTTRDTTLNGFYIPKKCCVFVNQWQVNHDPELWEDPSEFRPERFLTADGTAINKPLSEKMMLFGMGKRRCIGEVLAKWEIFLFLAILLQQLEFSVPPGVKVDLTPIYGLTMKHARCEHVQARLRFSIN

A549 [1] = assay: Decrease in cell cycle associated protein expression in human A549 cells assessed as fold change in CDK2 expression at 2.5 uM after 48 hrs by Western blot analysis (reference value: 0.48); format: functional
CYP2D6 = CYP2D6 (Homo sapiens, UniProt P10635); assay: Inhibition of human CYP2D6 assessed as residual activity at 10 uM measured after 15 mins relative to control; format: ADME; conditions: read-out: Activity
Sequence of CYP2D6 (P10635 whole entry): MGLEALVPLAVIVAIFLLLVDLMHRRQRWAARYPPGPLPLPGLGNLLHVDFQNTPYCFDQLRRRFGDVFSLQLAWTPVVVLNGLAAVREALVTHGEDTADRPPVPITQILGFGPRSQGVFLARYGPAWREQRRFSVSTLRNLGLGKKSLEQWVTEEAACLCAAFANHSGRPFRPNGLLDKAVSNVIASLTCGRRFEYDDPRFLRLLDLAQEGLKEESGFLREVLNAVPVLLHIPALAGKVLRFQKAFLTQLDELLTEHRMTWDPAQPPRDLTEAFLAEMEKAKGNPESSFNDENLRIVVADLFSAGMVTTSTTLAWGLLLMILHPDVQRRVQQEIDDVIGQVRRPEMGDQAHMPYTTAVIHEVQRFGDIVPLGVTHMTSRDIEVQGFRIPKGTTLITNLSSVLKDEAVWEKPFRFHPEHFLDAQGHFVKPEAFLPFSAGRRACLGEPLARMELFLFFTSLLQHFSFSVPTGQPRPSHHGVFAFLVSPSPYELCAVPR

A549 [2] = assay: Decrease in cell cycle associated protein expression in human A549 cells assessed as reduction in cyclin E expression at 10 uM by Western blot analysis; format: functional, cell-based; conditions: time 6-48 hrs, TDE = time-dependent effect
A549 [3] = assay: Decrease in cell cycle associated protein expression in human A549 cells assessed as fold change in CDK6 expression at 10 uM after 24 hrs by Western blot analysis (reference value: 0.7); format: functional
[4] = Solubility of the compound at pH 7.4; format: physicochemical; conditions: buffer
A549 [5] = assay: Decrease in cell cycle associated protein expression in human A549 cells assessed as fold change in cyclin D3 expression at 10 uM after 12 hrs by Western blot analysis (reference value: 1.09); format: functional
A549 [6] = assay: Decrease in cell cycle associated protein expression in human A549 cells assessed as fold change in CDK6 expression at 2.5 uM after 48 hrs by Western blot analysis (reference value: 1.05); format: functional
A549 [7] = assay: Decrease in cell cycle associated protein expression in human A549 cells assessed as fold change in cyclin E expression at 2.5 uM after 48 hrs by Western blot analysis (reference value: 0.37); format: functional
A549 [8] = assay: Potentiation of etoposide-induced cell cycle arrest in human A549 cells assessed as accumulation at G2/M phase at 2.5 uM in presence of etoposide after 48 hrs by flow cytometric analysis (Rvb =18.9%); format: functional
[9] = Metabolic stability in rat liver microsomes assessed as parent compound remaining at 1 uM measured for 30 mins; format: ADME, Microsome; conditions: read-out: Stabilty
[10] = Increase in recruitment of […] p27KIP1 to CDK2 in human A549 cells assessed as fold change at 10 uM incubated for 12 hrs by immunoprecipitation/immunoblot analysis (reference value: 0.43); format: functional
A549 [11] = assay: Decrease in cell cycle associated protein expression in human A549 cells assessed as fold change in CDK2 expression at 10 uM after 36 hrs by Western blot analysis (reference value: 0.79); format: functional
A549 [12] = assay: Decrease in cell cycle associated protein expression in human A549 cells assessed as reduction in CDK4 expression at 10 uM by Western blot analysis; format: functional, cell-based; conditions: time 6-48 hrs, TDE = time-dependent effect
A549 [13] = assay: Decrease in cell cycle associated protein expression in human A549 cells assessed as fold change in CDK4 expression at 10 uM after 24 hrs by Western blot analysis (reference value: 0.87); format: functional
A549 [14] = assay: Decrease in cell cycle associated protein expression in human A549 cells assessed as reduction in cyclin D2 expression after 48 hrs by Western blot analysis; format: functional, cell-based; conditions: dose 2.5-10 µM
A549 [15] = assay: Decrease in cell cycle associated protein expression in human A549 cells assessed as fold change in cyclin E expression at 10 uM after 12 hrs by Western blot analysis (reference value: 0.55); format: functional
[16] = Protein binding in rat plasma at 10 uM after 4 hrs; format: ADME, cell-free; conditions: read-out: PPB (converted)
A549 [17] = assay: Decrease in cell cycle associated protein expression in human A549 cells assessed as fold change in cyclin D1 expression at 10 uM after 36 hrs by Western blot analysis (reference value: 0.68); format: functional
A549 [18] = assay: Induction of cell cycle arrest in human A549 cells assessed as accumulation at S phase at 5 uM after 24 hrs by flow cytometric analysis (reference value: 17.6%); format: functional
A549 [19] = assay: Cytotoxicity against human A549 cells assessed as reduction in cell viability by MTT assay; format: functional, cell-based
A549 [20] = assay: Decrease in cell cycle associated protein expression in human A549 cells assessed as reduction in CDK6 expression at 10 uM by Western blot analysis; format: functional, cell-based; conditions: time 6-48 hrs, TDE = time-dependent effect
[21] = Increase in recruitment of […] p27KIP1 to CDK4 in human A549 cells assessed as fold change at 10 uM incubated for 12 hrs by immunoprecipitation/immunoblot analysis (reference value: 0.16); format: functional
[22] = Metabolic stability in human plasma assessed as parent compound remaining at 10 uM measured after 2 hrs; format: ADME, cell-free; conditions: read-out: Stabilty
A549 [23] = assay: Induction of cell cycle arrest in human A549 cells assessed as accumulation at G1 phase at 5 uM after 24 hrs by flow cytometric analysis (reference value: 53.1%); format: functional
A549 [24] = assay: Potentiation of etoposide-induced cell cycle arrest in human A549 cells assessed as accumulation at sub G1 phase at 2.5 uM in presence of etoposide after 48 hrs by flow cytometric analysis (Rvb =33 %); format: functional
A549 [25] = assay: Decrease in cell cycle associated protein expression in human A549 cells assessed as fold change in cyclin D2 expression at 2.5 uM after 48 hrs by Western blot analysis (reference value: 0.46); format: functional
A549 [26] = assay: Induction of cell cycle arrest in human A549 cells assessed as accumulation at sub G1 phase at 5 uM after 48 hrs by flow cytometric analysis (reference value: 1.9 to 4.9%); format: functional
A549 [27] = assay: Induction of cell cycle arrest in human A549 cells assessed as accumulation at sub G1 phase at 10 uM after 48 hrs by flow cytometric analysis (reference value: 1.9%); format: functional
A549 [28] = assay: Decrease in cell cycle associated protein expression in human A549 cells assessed as reduction in cyclin D3 expression after 48 hrs by Western blot analysis; format: functional, cell-based; conditions: dose 2.5-10 µM
A549 [29] = assay: Potentiation of etoposide-induced cell cycle arrest in human A549 cells assessed as accumulation at S phase at 10 uM in presence of etoposide after 48 hrs by flow cytometric analysis (Rvb =12.3%); format: functional
A549 [30] = assay: Induction of cell cycle arrest in human A549 cells assessed as accumulation at G2/M phase at 2.5 uM after 48 hrs by flow cytometric analysis (Rvb =22.1%); format: functional

- activity at 0.25 h, 10 µM (CYP1A2): 59.2%
- activity at 0.25 h, 10 µM (CYP2D6): 78.3%
- solubility [4]: < 1000 µg/mL
- remaining at 0.5 h, 1 µM [9]: 62.6%
- fraction unbound at 4 h, 10 µM [16]: < 0.01
- remaining at 2 h, 10 µM [22]: 57.6%
SMILES: CN(C)C(=O)NCCCN(C)C1=Nc2ccccc2C(CC(=O)NCc2ccc(F)cc2)N1c1ccc(C2CCCCC2)cc1 (configuration not stated)
- fold change (FC) (A549 [1]): 0.47
- Activity (A549 [2]): Tde
- fold change (FC) (A549 [3]): 0.47
- fold change (FC) (A549 [5]): 0.42
- fold change (FC) (A549 [6]): 0.59
- fold change (FC) (A549 [7]): 0.44
- Activity (A549 [8]): 18.5%
- fold change (FC) [10]: 0.6
- fold change (FC) (A549 [11]): 0.71
- Activity (A549 [12]): Tde
- fold change (FC) (A549 [13]): 0.59
- Activity (A549 [14]): Dose-dependent effect
- fold change (FC) (A549 [15]): 0.13
- fold change (FC) (A549 [17]): 0.62
- Activity (A549 [18]): 12.4%
- pIC50 (A549 [19]): 5.14
- Activity (A549 [20]): Tde
- fold change (FC) [21]: 0.62
- Activity (A549 [23]): 63.6%
- Activity (A549 [24]): 36.9%
- fold change (FC) (A549 [25]): 0.61
- Activity (A549 [26]): 1%
- Activity (A549 [27]): 4%
- Activity (A549 [28]): Dose-dependent effect
- Activity (A549 [29]): 6.2%
- Activity (A549 [30]): 19.4%
